Measured values from the supplement of paper PMC10307832.

Columns and labels:
Experiment in all cases: relative viability (nuclei count vs DMSO), 5 days (fraction); higher = more cells survive
HCC-15 = system: HCC-15
Method in brief: (§1)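 Five library-drug doses in √10 steps were combined with a fixed anchor-drug dose, or a single drug was given alone, by pin tool to lung cancer cell lines in 1536-well plates the day after seeding. Nuclei were stained and counted after 5 days. Relative viability is the nuclei count in treated wells over that in vehicle wells, taken as the median of duplicate plates.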

NCI-H2405 = system: NCI-H2405
Method in brief: as §1

LC-2-ad = system: LC-2-ad
Method in brief: as §1

SW 900 = system: SW 900
Method in brief: as §1

EPLC-272H = system: EPLC-272H
Method in brief: as §1

NCI-H1944 = system: NCI-H1944
Method in brief: as §1

EMC-BAC-2 = system: EMC-BAC-2
Method in brief: as §1

ChaGo-K-1 = system: ChaGo-K-1
Method in brief: as §1

NCI-H23 = system: NCI-H23
Method in brief: as §1

LK-2 = system: LK-2
Method in brief: as §1

SW 1573 = system: SW 1573
Method in brief: as §1

NCI-H596 = system: NCI-H596
Method in brief: as §1

NCI-H1792 = system: NCI-H1792
Method in brief: as §1

NCI-H1793 = system: NCI-H1793
Method in brief: as §1

RERF-LC-KJ = system: RERF-LC-KJ
Method in brief: as §1

NCI-H3122 = system: NCI-H3122
Method in brief: as §1

HCC-827 = system: HCC-827
Method in brief: as §1

LCLC-103H = system: LCLC-103H
Method in brief: as §1

NCI-H2170 = system: NCI-H2170
Method in brief: as §1

EKVX = system: EKVX
Method in brief: as §1

H3255 = system: H3255
Method in brief: as §1

HARA = system: HARA
Method in brief: as §1

## Oc1nc(-c2ccc(C(F)(F)F)cc2)nc2c1CSCC2 [XAV939] + Cc1nc(Nc2ncc(C(=O)Nc3c(C)cccc3Cl)s2)cc(N2CCN(CCO)CC2)n1 [Dasatinib] (partner 0.075 µM)
HCC-15; first compound 0.08 µM
  relative viability: 0.633
HCC-15; first compound 0.253 µM
  relative viability: 0.463
HCC-15; first compound 0.8 µM
  relative viability: 0.601
HCC-15; first compound 2.53 µM
  relative viability: 0.54
NCI-H2405; first compound 0.08 µM
  relative viability: 0.221
NCI-H2405; first compound 0.253 µM
  relative viability: 0.225
NCI-H2405; first compound 0.8 µM
  relative viability: 0.214
NCI-H2405; first compound 2.53 µM
  relative viability: 0.229
LC-2-ad; first compound 0.08 µM
  relative viability: 0.729
LC-2-ad; first compound 0.253 µM
  relative viability: 0.446
LC-2-ad; first compound 0.8 µM
  relative viability: 0.553
LC-2-ad; first compound 2.53 µM
  relative viability: 0.595
SW 900; first compound 0.08 µM
  relative viability: 0.545
SW 900; first compound 0.253 µM
  relative viability: 0.463
SW 900; first compound 0.8 µM
  relative viability: 0.51
SW 900; first compound 2.53 µM
  relative viability: 0.435
EPLC-272H; first compound 0.08 µM
  relative viability: 0.385
EPLC-272H; first compound 0.253 µM
  relative viability: 0.403
EPLC-272H; first compound 0.8 µM
  relative viability: 0.355
EPLC-272H; first compound 2.53 µM
  relative viability: 0.247
NCI-H1944; first compound 0.08 µM
  relative viability: 0.239
NCI-H1944; first compound 0.253 µM
  relative viability: 0.248
NCI-H1944; first compound 0.8 µM
  relative viability: 0.226
NCI-H1944; first compound 2.53 µM
  relative viability: 0.218
EMC-BAC-2; first compound 0.08 µM
  relative viability: 0.321
EMC-BAC-2; first compound 0.253 µM
  relative viability: 0.278
EMC-BAC-2; first compound 0.8 µM
  relative viability: 0.282
EMC-BAC-2; first compound 2.53 µM
  relative viability: 0.23
ChaGo-K-1; first compound 0.08 µM
  relative viability: 0.654
ChaGo-K-1; first compound 0.253 µM
  relative viability: 0.639
ChaGo-K-1; first compound 0.8 µM
  relative viability: 0.587
ChaGo-K-1; first compound 2.53 µM
  relative viability: 0.56
NCI-H23; first compound 0.08 µM
  relative viability: 0.872
NCI-H23; first compound 0.253 µM
  relative viability: 0.7
NCI-H23; first compound 0.8 µM
  relative viability: 0.895
NCI-H23; first compound 2.53 µM
  relative viability: 0.722
LK-2; first compound 0.08 µM
  relative viability: 0.262
LK-2; first compound 0.253 µM
  relative viability: 0.31
LK-2; first compound 0.8 µM
  relative viability: 0.27
LK-2; first compound 2.53 µM
  relative viability: 0.399
SW 1573; first compound 0.08 µM
  relative viability: 0.605
SW 1573; first compound 0.253 µM
  relative viability: 0.506
SW 1573; first compound 0.8 µM
  relative viability: 0.43
SW 1573; first compound 2.53 µM
  relative viability: 0.241
NCI-H596; first compound 0.08 µM
  relative viability: 0.584
NCI-H596; first compound 0.253 µM
  relative viability: 0.549
NCI-H596; first compound 0.8 µM
  relative viability: 0.708
NCI-H596; first compound 2.53 µM
  relative viability: 0.563
NCI-H1792; first compound 0.08 µM
  relative viability: 0.877
NCI-H1792; first compound 0.253 µM
  relative viability: 0.809
NCI-H1792; first compound 0.8 µM
  relative viability: 0.87
NCI-H1792; first compound 2.53 µM
  relative viability: 0.725
NCI-H1793; first compound 0.08 µM
  relative viability: 0.379
NCI-H1793; first compound 0.253 µM
  relative viability: 0.339
NCI-H1793; first compound 0.8 µM
  relative viability: 0.399
NCI-H1793; first compound 2.53 µM
  relative viability: 0.419
RERF-LC-KJ; first compound 0.08 µM
  relative viability: 0.77
RERF-LC-KJ; first compound 0.253 µM
  relative viability: 0.643
RERF-LC-KJ; first compound 0.8 µM
  relative viability: 0.55
RERF-LC-KJ; first compound 2.53 µM
  relative viability: 0.46
NCI-H3122; first compound 0.08 µM
  relative viability: 0.877
NCI-H3122; first compound 0.253 µM
  relative viability: 0.786
NCI-H3122; first compound 0.8 µM
  relative viability: 0.789
NCI-H3122; first compound 2.53 µM
  relative viability: 0.181
HCC-827; first compound 0.08 µM
  relative viability: 0.349
HCC-827; first compound 0.253 µM
  relative viability: 0.297
HCC-827; first compound 0.8 µM
  relative viability: 0.393
HCC-827; first compound 2.53 µM
  relative viability: 0.437
LCLC-103H; first compound 0.08 µM
  relative viability: 0.633
LCLC-103H; first compound 0.253 µM
  relative viability: 0.553
LCLC-103H; first compound 0.8 µM
  relative viability: 0.55
LCLC-103H; first compound 2.53 µM
  relative viability: 0.456
NCI-H2170; first compound 0.08 µM
  relative viability: 0.505
NCI-H2170; first compound 0.253 µM
  relative viability: 0.496
NCI-H2170; first compound 0.8 µM
  relative viability: 0.46
NCI-H2170; first compound 2.53 µM
  relative viability: 0.394
EKVX; first compound 0.08 µM
  relative viability: 0.444
EKVX; first compound 0.8 µM
  relative viability: 0.486
EKVX; first compound 2.53 µM
  relative viability: 0.228
H3255; first compound 0.08 µM
  relative viability: 0.341
H3255; first compound 0.253 µM
  relative viability: 0.373
H3255; first compound 0.8 µM
  relative viability: 0.313
H3255; first compound 2.53 µM
  relative viability: 0.448
HARA; first compound 0.08 µM
  relative viability: 0.229
HARA; first compound 0.253 µM
  relative viability: 0.201
HARA; first compound 0.8 µM
  relative viability: 0.275
HARA; first compound 2.53 µM
  relative viability: 0.256
